Four compounds from ChEMBL document CHEMBL1909046, “DrugMatrix in vitro pharmacology data” can be followed below.

Each structure is given as a SMILES string.

The target in the first assay is Protein kinase C alpha type (Homo sapiens, UniProt P17252).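 Further: inhibition of PKCalpha kinase activity measured in an enzyme assay with histone as the phosphorylation substrate; in other assays of this panel Not Active means under 50% inhibition at 10 µM.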
Test: not given
It counts as cell-based. The following applies: sf9.
As to `CSc1ccc2c(c1)N(CCC1CCCCN1C)c1ccccc1S2` (stereo not given) [THIORIDAZINE], the 50% inhibitory concentration (IC50) entry was “Not Active”.
On the same count and under the same terms, to `COc1cccc(C2(O)CCCCC2CN(C)C)c1` (stereo not given) [TRAMADOL] belongs “Not Active”; to `O=C(CCCN1CCC(O)(c2ccc(Cl)cc2)CC1)c1ccc(F)cc1` [HALOPERIDOL], “Not Active”.
On the same count and under the same terms, to `CN1CCN2c3ccccc3Cc3ccccc3C2C1` (stereo not given) [MIANSERIN] belongs “Not Active”.

The target in a further assay is Epidermal growth factor receptor (Homo sapiens, UniProt P00533). Kind of assay: DRUGMATRIX: Protein Tyrosine Kinase, EGF Receptor enzyme inhibition (substrate: Poly(Glu:Tyr)). The assay is classed as cell-based, Insect cells. The following applies: Not Active = under 50% inhibition at 10 µM; read-out: IC50.
Chain of Epidermal growth factor receptor (P00533 whole entry): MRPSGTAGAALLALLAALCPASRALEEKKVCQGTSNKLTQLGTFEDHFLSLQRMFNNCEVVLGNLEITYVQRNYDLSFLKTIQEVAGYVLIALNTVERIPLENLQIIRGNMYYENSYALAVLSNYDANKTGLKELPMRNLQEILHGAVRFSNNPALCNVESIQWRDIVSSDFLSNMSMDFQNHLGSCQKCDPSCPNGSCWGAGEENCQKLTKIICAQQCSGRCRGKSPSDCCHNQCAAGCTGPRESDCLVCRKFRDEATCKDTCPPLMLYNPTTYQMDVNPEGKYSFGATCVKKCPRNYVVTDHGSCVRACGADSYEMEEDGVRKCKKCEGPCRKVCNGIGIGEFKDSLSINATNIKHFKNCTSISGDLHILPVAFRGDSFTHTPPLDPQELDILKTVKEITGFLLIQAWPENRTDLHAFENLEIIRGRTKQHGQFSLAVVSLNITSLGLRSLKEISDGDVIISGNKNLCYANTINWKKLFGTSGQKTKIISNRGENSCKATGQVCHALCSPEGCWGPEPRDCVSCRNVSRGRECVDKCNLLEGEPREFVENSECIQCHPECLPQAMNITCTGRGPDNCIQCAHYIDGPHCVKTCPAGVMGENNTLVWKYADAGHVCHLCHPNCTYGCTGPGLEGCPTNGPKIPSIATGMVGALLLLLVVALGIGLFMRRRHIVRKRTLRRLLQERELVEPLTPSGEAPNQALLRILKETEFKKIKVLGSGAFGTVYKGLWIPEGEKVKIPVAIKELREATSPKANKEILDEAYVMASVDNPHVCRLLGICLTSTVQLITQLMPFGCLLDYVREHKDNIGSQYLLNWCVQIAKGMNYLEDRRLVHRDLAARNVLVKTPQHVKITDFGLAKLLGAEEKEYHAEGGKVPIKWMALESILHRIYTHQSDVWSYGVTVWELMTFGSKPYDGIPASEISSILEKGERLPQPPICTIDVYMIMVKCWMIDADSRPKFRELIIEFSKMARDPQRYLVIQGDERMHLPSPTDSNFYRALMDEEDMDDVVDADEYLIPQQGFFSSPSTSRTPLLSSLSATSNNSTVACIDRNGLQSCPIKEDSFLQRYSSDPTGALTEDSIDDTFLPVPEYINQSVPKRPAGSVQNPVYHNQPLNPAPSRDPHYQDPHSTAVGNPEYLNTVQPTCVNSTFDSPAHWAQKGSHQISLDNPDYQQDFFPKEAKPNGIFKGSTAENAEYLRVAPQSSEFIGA
`CSc1ccc2c(c1)N(CCC1CCCCN1C)c1ccccc1S2` (stereo not given) [THIORIDAZINE]: the IC50 stood at 2950 nM.

The assay is the same for the next values; noted with them: insect cells; Not Active = under 50% inhibition at 10 µM.
For the compound `COc1cccc(C2(O)CCCCC2CN(C)C)c1` (stereo not given) [TRAMADOL], the half-maximal inhibitory concentration (IC50) result was “Not Active”.
On the same count and under the same terms, to `O=C(CCCN1CCC(O)(c2ccc(Cl)cc2)CC1)c1ccc(F)cc1` [HALOPERIDOL] belongs “Not Active”.
On the same count and under the same terms, under `CN1CCN2c3ccccc3Cc3ccccc3C2C1` (stereo not given) [MIANSERIN] stands “Not Active”.

The next assay has as its target T1, Alpha-1A adrenergic receptor (Rattus norvegicus, UniProt P43140).
T1 sequence (P43140 whole entry): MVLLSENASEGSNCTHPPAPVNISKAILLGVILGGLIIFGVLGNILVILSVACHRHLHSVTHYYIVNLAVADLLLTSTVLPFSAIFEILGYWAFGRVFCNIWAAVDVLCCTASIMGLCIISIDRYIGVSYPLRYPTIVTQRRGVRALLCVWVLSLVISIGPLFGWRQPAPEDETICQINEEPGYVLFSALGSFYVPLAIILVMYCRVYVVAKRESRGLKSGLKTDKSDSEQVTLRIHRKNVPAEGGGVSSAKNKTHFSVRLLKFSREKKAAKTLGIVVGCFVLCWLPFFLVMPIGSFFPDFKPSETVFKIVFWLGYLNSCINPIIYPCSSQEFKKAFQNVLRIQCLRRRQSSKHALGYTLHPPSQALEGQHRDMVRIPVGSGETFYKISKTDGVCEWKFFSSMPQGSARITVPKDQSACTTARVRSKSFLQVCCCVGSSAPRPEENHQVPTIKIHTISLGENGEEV
In words: DRUGMATRIX: Alpha-1A adrenergic receptor radioligand binding (ligand: prazosin). The assay is classed as cell membranes, Wistar, Submaxillary gland, Membrane. The following applies: Not Active = under 50% inhibition at 10 µM.
Regarding `COc1cccc(C2(O)CCCCC2CN(C)C)c1` (stereo not given) [TRAMADOL], the IC50 entry is reported as “Not Active”.

The assay is the same for the next values; noted with them: Not Active = under 50% inhibition at 10 µM; read-out: IC50.
Take `CSc1ccc2c(c1)N(CCC1CCCCN1C)c1ccccc1S2` (stereo not given) [THIORIDAZINE]: the half-inhibitory concentration (IC50) turned out to be 5.09 nM.

Still in this assay, the particulars now being: Not Active = under 50% inhibition at 10 µM; read-out: Ki.
Take `CSc1ccc2c(c1)N(CCC1CCCCN1C)c1ccccc1S2` (stereo not given) [THIORIDAZINE]: the inhibition constant Ki is 2.06 nM.

In the next assay the target is Prostaglandin G/H synthase 1 (Homo sapiens, UniProt P23219). Kind of assay: biochemical. It counts as tissue-based, Platelet. As to conditions: platelet.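 Further: inhibition of COX-1 enzyme activity, with arachidonic acid supplied as substrate; in other assays of this panel Not Active means under 50% inhibition at 10 µM.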
Chain of Prostaglandin G/H synthase 1 (P23219 whole entry): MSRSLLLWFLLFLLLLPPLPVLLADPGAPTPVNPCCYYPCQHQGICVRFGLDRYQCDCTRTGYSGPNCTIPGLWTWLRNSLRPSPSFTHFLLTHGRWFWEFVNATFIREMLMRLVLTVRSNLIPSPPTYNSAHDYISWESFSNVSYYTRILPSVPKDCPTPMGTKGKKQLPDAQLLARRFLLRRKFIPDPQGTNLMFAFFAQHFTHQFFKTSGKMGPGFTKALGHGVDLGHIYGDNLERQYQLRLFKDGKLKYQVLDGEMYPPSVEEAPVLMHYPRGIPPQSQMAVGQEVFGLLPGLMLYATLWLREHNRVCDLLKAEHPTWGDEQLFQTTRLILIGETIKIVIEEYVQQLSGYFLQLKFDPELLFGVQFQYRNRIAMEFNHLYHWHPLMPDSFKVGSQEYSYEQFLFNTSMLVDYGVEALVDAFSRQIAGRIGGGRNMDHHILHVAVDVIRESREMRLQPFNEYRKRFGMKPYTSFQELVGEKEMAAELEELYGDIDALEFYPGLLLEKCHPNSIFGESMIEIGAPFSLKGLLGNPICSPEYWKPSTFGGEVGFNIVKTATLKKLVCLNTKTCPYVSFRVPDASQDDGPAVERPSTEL
Consider `CSc1ccc2c(c1)N(CCC1CCCCN1C)c1ccccc1S2` (stereo not given) [THIORIDAZINE], for which the IC50 entry is “Not Active”.
On the same count and under the same terms, under `COc1cccc(C2(O)CCCCC2CN(C)C)c1` (stereo not given) [TRAMADOL] stands “Not Active”.
The same measure, in the same setting: under `O=C(CCCN1CCC(O)(c2ccc(Cl)cc2)CC1)c1ccc(F)cc1` [HALOPERIDOL] stands “Not Active”.
On the same count and under the same terms, to `CN1CCN2c3ccccc3Cc3ccccc3C2C1` (stereo not given) [MIANSERIN] belongs “Not Active”.

A further assay addresses T2, D(4) dopamine receptor (Homo sapiens, UniProt P21917).
T2 sequence (P21917 whole entry): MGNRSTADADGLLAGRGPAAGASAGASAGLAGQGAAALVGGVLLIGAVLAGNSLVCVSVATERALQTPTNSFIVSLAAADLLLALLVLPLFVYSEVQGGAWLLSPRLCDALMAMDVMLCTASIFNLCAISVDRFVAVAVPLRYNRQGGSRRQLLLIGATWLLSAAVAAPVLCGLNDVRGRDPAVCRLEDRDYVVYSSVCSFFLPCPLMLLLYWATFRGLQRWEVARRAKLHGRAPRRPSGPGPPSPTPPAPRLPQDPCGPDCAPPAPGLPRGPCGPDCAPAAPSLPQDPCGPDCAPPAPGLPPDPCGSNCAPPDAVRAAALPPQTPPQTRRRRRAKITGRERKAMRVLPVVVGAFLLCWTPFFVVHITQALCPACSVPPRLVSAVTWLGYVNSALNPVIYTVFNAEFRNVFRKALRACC
In words: DRUGMATRIX: Dopamine D4.2 radioligand binding (ligand: [3H] Spiperone). It counts as cell membranes, CHO-K1, Membrane. As to conditions: Not Active = under 50% inhibition at 10 µM; read-out: IC50.
Take `CSc1ccc2c(c1)N(CCC1CCCCN1C)c1ccccc1S2` (stereo not given) [THIORIDAZINE]: the IC50 turned out to be 1470 nM.

Staying with this assay, now noted: Not Active = under 50% inhibition at 10 µM; read-out: Ki.
In the case of `CSc1ccc2c(c1)N(CCC1CCCCN1C)c1ccccc1S2` (stereo not given) [THIORIDAZINE], the inhibitory constant (Ki) came out at 515 nM.

Staying with this assay, now noted: cho-k1; Not Active = under 50% inhibition at 10 µM.
On to `COc1cccc(C2(O)CCCCC2CN(C)C)c1` (stereo not given) [TRAMADOL], for which the concentration for half-maximal inhibition (IC50) entry was “Not Active”.
The same measure, in the same setting: to `CN1CCN2c3ccccc3Cc3ccccc3C2C1` (stereo not given) [MIANSERIN] belongs “Not Active”.

The next assay deals with Beta-3 adrenergic receptor (Homo sapiens, UniProt P13945). In words: DRUGMATRIX: Adrenergic beta3 radioligand binding (ligand: [125I] Cyanopindolol). It counts as cell membranes, HEK293, Membrane. As to conditions: hek293; Not Active = under 50% inhibition at 10 µM.
Chain of Beta-3 adrenergic receptor (P13945 whole entry): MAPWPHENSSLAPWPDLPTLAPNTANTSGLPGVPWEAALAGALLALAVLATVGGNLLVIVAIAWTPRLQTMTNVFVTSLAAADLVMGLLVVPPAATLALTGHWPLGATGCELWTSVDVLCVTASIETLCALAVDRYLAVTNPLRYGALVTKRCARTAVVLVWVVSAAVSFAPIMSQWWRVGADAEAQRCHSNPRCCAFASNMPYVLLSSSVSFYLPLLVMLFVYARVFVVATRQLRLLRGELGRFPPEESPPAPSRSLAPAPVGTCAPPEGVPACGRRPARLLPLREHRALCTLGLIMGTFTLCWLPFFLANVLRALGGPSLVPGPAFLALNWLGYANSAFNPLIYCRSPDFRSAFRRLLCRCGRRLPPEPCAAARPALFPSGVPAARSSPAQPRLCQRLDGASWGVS
For the compound `CSc1ccc2c(c1)N(CCC1CCCCN1C)c1ccccc1S2` (stereo not given) [THIORIDAZINE], the IC50 result was “Not Active”.
Same read-out and setting: under `COc1cccc(C2(O)CCCCC2CN(C)C)c1` (stereo not given) [TRAMADOL] stands “Not Active”; under `O=C(CCCN1CCC(O)(c2ccc(Cl)cc2)CC1)c1ccc(F)cc1` [HALOPERIDOL], “Not Active”; under `CN1CCN2c3ccccc3Cc3ccccc3C2C1` (stereo not given) [MIANSERIN], “Not Active”.

A further assay concerns the target Glycine receptor (Rattus norvegicus, UniProt P22771+P24524+P07727+P20781). Further: in other assays of this panel Not Active means under 50% inhibition at 10 µM.
Test: not given
The assay is classed as cell membranes, Wistar, Spinal cord, Membrane.
Conditions: not given
As to `CSc1ccc2c(c1)N(CCC1CCCCN1C)c1ccccc1S2` (stereo not given) [THIORIDAZINE], the half-inhibitory concentration (IC50) result is on record as “Not Active”.
Still for that read-out and setting: to `COc1cccc(C2(O)CCCCC2CN(C)C)c1` (stereo not given) [TRAMADOL] belongs “Not Active”.
Turning to `O=C(CCCN1CCC(O)(c2ccc(Cl)cc2)CC1)c1ccc(F)cc1` [HALOPERIDOL], the IC50 entry is listed as “Not Active”.
Same read-out and setting: under `CN1CCN2c3ccccc3Cc3ccccc3C2C1` (stereo not given) [MIANSERIN] stands “Not Active”.

The next assay has as its target T3, Alpha-1D adrenergic receptor (Homo sapiens, UniProt P25100). Further: in other assays of this panel Not Active means under 50% inhibition at 10 µM.
T3 sequence (P25100 whole entry): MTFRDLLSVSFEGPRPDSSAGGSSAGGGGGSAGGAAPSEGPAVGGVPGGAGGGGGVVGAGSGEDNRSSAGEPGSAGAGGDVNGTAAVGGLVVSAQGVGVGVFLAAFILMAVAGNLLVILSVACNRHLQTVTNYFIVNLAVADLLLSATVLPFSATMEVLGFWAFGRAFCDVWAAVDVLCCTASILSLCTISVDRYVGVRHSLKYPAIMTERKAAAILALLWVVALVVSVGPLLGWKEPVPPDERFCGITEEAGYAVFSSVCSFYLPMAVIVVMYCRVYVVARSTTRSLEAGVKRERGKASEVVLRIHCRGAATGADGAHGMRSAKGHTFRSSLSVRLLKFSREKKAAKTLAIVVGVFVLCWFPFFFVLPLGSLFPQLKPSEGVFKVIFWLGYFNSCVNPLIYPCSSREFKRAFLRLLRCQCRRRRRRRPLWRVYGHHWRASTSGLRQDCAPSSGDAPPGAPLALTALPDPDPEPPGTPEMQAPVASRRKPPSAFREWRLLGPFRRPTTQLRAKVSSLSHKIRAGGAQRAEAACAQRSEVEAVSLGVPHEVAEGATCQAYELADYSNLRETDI
Test: not given
The assay is classed as cell membranes, HEK293, Membrane. The following applies: hek293.
Take `COc1cccc(C2(O)CCCCC2CN(C)C)c1` (stereo not given) [TRAMADOL]: the concentration for half-maximal inhibition (IC50) entry is “Not Active”.

Still in this assay, the particulars now being: read-out: IC50.
Consider `CSc1ccc2c(c1)N(CCC1CCCCN1C)c1ccccc1S2` (stereo not given) [THIORIDAZINE], for which the half-inhibitory concentration (IC50) stood at 5.89 nM.
The same measure, in the same setting: to `CN1CCN2c3ccccc3Cc3ccccc3C2C1` (stereo not given) [MIANSERIN] belongs 83 nM.

The same assay, now with this note: read-out: Ki.
For `CSc1ccc2c(c1)N(CCC1CCCCN1C)c1ccccc1S2` (stereo not given) [THIORIDAZINE], the inhibitory constant (Ki) worked out at 2.9 nM.
Turning to `CN1CCN2c3ccccc3Cc3ccccc3C2C1` (stereo not given) [MIANSERIN], the Ki worked out at 41 nM.

The target in a further assay is T4, Cathepsin G (Homo sapiens, UniProt P08311).
T4 sequence (P08311 whole entry): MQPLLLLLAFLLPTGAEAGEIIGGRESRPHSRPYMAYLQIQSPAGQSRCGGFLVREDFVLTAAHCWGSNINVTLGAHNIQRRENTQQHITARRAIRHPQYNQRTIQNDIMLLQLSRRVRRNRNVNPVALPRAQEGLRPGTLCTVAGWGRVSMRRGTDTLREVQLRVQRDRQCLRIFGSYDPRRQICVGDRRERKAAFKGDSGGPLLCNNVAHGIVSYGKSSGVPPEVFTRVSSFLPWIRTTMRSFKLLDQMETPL
Test: not given
It counts as tissue-based. As to conditions: neutrophil.
Turning to `CSc1ccc2c(c1)N(CCC1CCCCN1C)c1ccccc1S2` (stereo not given) [THIORIDAZINE], the half-inhibitory concentration (IC50) entry is on record as “Not Active”.
Regarding `COc1cccc(C2(O)CCCCC2CN(C)C)c1` (stereo not given) [TRAMADOL], the IC50 entry is “Not Active”.
On the same count and under the same terms, under `O=C(CCCN1CCC(O)(c2ccc(Cl)cc2)CC1)c1ccc(F)cc1` [HALOPERIDOL] stands “Not Active”.
On the same count and under the same terms, under `CN1CCN2c3ccccc3Cc3ccccc3C2C1` (stereo not given) [MIANSERIN] stands “Not Active”.

The target in the next assay is T5, Calcitonin receptor (Homo sapiens, UniProt P30988). Further: in other assays of this panel Not Active means under 50% inhibition at 10 µM.
T5 sequence (P30988 whole entry): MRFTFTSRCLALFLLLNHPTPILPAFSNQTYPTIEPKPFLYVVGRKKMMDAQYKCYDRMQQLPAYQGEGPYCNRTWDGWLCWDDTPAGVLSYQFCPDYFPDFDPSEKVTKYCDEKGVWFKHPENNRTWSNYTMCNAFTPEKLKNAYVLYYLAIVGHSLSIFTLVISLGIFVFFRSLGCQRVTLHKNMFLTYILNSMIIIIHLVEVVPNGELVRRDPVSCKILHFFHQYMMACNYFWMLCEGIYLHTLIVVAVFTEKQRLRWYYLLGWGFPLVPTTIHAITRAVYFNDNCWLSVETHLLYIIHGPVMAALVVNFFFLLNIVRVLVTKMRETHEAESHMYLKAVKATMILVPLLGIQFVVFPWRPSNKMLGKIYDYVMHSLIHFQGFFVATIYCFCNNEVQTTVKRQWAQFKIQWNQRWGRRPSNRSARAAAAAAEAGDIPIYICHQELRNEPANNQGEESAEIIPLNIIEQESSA
Test: not given
It counts as cell membranes, Membrane. As to conditions: t47d.
As for `CSc1ccc2c(c1)N(CCC1CCCCN1C)c1ccccc1S2` (stereo not given) [THIORIDAZINE], the IC50 result was “Not Active”.
The same measure, in the same setting: under `COc1cccc(C2(O)CCCCC2CN(C)C)c1` (stereo not given) [TRAMADOL] stands “Not Active”.
The same measure, in the same setting: under `O=C(CCCN1CCC(O)(c2ccc(Cl)cc2)CC1)c1ccc(F)cc1` [HALOPERIDOL] stands “Not Active”; under `CN1CCN2c3ccccc3Cc3ccccc3C2C1` (stereo not given) [MIANSERIN], “Not Active”.

By IC50 is commonly meant the concentration that inhibits the measured activity by half. Broadly, the Ki is a dissociation constant, usually derived from enzyme kinetics or from competition with a known ligand.
